Calls of active or inactive are those of the source. The calls are words filed in the database; no cut-off is given here.

For six compounds, Drug uptake and Activity results are on record in ChEMBL document CHEMBL4622857, “Is GPR146 really the receptor for proinsulin C-peptide?” (Bioorg Med Chem Lett, 2020).

Data set [1] can be described thus: Drug uptake in human HK2 cells at 0.1 to 0.5 uM using Cy3-labeled compound by fluorescence microscopy. It counts as ADME, cell-based. As to conditions: hk-2, 0.5 µM.
Data set [2] addresses G-protein coupled receptor 146 (Homo sapiens) (UniProt Q96CH1). The data set can be described thus: Activation of human GPR146 expressed in HK2 cells assessed as increase in dynamic mass redistribution response up to 100 uM by DMR assay. The format is cell-based.
Data set [3] in a line: Drug uptake in CHOK1 cells expressing human GPR146 at 0.1 to 0.5 uM by using Cy3-labeled compound by fluorescence microsocpy. It counts as ADME, cell-based, Cricetulus griseus. As to conditions: chinese hamster, cho-k1, 0.5 µM.
Data set [4] deals with G-protein coupled receptor 146 (Homo sapiens) (UniProt Q96CH1). The data set can be described thus: Agonist activity at human GPR146 receptor expressed in HEK293 cells assessed as recruitment of beta-arrestin up to 100 uM by PathHunter assay. The format is cell-based.
Data set [5] has as its target Glucagon-like peptide 1 receptor (Homo sapiens) (UniProt P43220). As to the kind of experiment: Activation of human GLP1R expressed in CHO-K1 cells assessed as increase in dynamic mass redistribution response upto 100 uM by DMR assay. The format is cell-based.
The target of data set [6] is G-protein coupled receptor 146 (Homo sapiens) (UniProt Q96CH1). The data set can be described thus: Activation of human GPR146 expressed in HEK293 cells assessed as increase in dynamic mass redistribution response up to 100 uM by DMR assay. It counts as cell-based.
Data set [7] in a line: Drug uptake in CHOK1 cells at 0.1 to 0.5 uM by using Cy3-labeled compound by fluorescence microsocpy. Particulars: chinese hamster, cho-k1, 0.5 µM. It counts as ADME, cell-based, Cricetulus griseus.
Data set [8] concerns the target G-protein coupled receptor 146 (Homo sapiens) (UniProt Q96CH1). The data set can be described thus: Activation of human GPR146 expressed in CHO-K1 cells assessed as increase in dynamic mass redistribution response upto 100 uM by DMR assay. The format is cell-based.
For data set [9] the target is unchanged. As to the kind of experiment: Activation of human GPR146 expressed in CHO-K1 cells assessed as increase in dynamic mass redistribution response at 100 uM by DMR assay. The format is cell-based.
In data set [10] the target is Glucagon-like peptide 1 receptor (Homo sapiens) (UniProt P43220). As to the kind of experiment: Activation of human GLP1R expressed in CHO-K1 cells assessed as increase in dynamic mass redistribution response at 100 uM by DMR assay. It counts as cell-based.
In data set [11] the target is G-protein coupled receptor 146 (Homo sapiens) (UniProt Q96CH1). As to the kind of experiment: Activation of human GPR146 receptor expressed in HK2 cells assessed as increase in dynamic mass redistribution response by DMR assay. The format is cell-based.
For data set [12] the target is unchanged. As to the kind of experiment: Activation of human GPR146 receptor expressed in HEK293 cells assessed as increase in dynamic mass redistribution response by DMR assay. It counts as cell-based.

Sequence of G-protein coupled receptor 146 (Homo sapiens) (Q96CH1 whole entry): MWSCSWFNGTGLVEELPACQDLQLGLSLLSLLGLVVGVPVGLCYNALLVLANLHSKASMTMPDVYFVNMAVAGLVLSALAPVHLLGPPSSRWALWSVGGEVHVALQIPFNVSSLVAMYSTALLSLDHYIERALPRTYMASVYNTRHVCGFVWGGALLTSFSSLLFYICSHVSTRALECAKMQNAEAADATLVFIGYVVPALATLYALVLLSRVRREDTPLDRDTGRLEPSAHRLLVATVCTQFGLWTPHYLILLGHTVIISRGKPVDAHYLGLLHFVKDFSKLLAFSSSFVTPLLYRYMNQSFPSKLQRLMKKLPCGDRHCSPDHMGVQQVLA
Sequence of Glucagon-like peptide 1 receptor (Homo sapiens) (P43220 whole entry): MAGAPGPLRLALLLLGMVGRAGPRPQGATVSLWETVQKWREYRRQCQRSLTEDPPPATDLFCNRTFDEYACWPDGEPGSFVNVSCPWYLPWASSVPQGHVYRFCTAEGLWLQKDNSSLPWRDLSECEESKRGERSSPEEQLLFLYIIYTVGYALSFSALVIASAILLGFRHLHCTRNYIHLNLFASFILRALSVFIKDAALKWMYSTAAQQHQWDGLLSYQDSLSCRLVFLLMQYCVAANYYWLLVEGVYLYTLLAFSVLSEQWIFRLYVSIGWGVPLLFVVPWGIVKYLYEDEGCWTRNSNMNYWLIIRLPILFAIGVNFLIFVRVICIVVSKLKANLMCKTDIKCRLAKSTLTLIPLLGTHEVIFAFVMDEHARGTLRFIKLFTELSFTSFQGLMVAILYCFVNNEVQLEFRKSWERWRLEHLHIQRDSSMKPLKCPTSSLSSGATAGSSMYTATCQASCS

In the case of H-EVEDPQVEQLELGGSPGDLQTLALEVARQ-OH, the Drug uptake result in [1], in data set [3] and in [7] was “Not Active” each time. The result in [2], in data set [4] and in data set [6] was inactive. In addition, the outcome in [5] and in [8] was Active.
With H-EVARQ-OH, the Drug uptake result in data set [1], in data set [3] and in data set [7] was “Not Active” each time. In addition, the result in data set [2] and in data set [4] was inactive. Further, the result in data set [5] and in [9] was Active.
In the case of `CC(C)C[C@H](NC(=O)[C@H](C)NC(=O)[C@H](CC(C)C)NC(=O)[C@@H]1CCCN1C(=O)[C@H](CCC(N)=O)NC(=O)[C@H](CC(C)C)NC(=O)[C@H](CO)NC(=O)CNC(=O)[C@H](C)NC(=O)CNC(=O)[C@@H]1CCCN1C(=O)CNC(=O)CNC(=O)CNC(=O)[C@H](CC(C)C)NC(=O)[C@H](CCC(=O)O)NC(=O)[C@@H](NC(=O)[C@H](CCC(N)=O)NC(=O)CNC(=O)[C@@H](NC(=O)[C@H](CCC(N)=O)NC(=O)[C@H](CC(C)C)NC(=O)[C@H](CC(=O)O)NC(=O)[C@H](CCC(=O)O)NC(=O)[C@H](C)NC(=O)[C@@H](N)CCC(=O)O)C(C)C)C(C)C)C(=O)N[C@@H](CCC(=O)O)C(=O)NCC(=O)N[C@@H](CO)C(=O)N[C@@H](CC(C)C)C(=O)N[C@@H](CCC(N)=O)C(=O)O` [HUMAN C-PEPTIDE], the Drug uptake entry in data set [1], in data set [3] and in [7] was “Not Active” each time. The outcome in data set [2], in data set [10], in data set [4] and in [6] was inactive. In [9], the outcome was Active.
Consider `C[N+](C)(C)CCOC(N)=O`, for which the result in data set [11] and in data set [12] was Active.
On to H-EGSLQ-OH, for which the Drug uptake entry in data set [1], in [3] and in data set [7] was “Not Active” throughout. The outcome in data set [2], in data set [4] and in data set [6] was inactive. Further, the outcome in [5] and in [8] was Active.
For the compound H-GADQPVGSEQQVQAGGLEGGLLLGLELPSEA-OH, the Drug uptake entry in [1], in [3] and in data set [7] was “Not Active” in each case. Moreover, the result in [2], in [4] and in data set [6] was inactive. Further, the result in data set [5] and in data set [8] was Active.
